The values that follow come from patent publication US20190375708A1 (VenatoRx Pharmaceuticals, Inc., priority 2018, published 2019).

The EC50 is the midpoint of the concentration-response curve. As a reminder, the CC50 is the concentration giving 50% cytotoxicity. The low end stands for harm at low concentration, the high end for better tolerance by the cells.

Each structure is given as a SMILES string.

The subject of series [1] is HBV replication in HepAD38 cells. As to the kind of experiment: Anti-HBV replication assay in HepAD38 cells (QPCR of extracellular HBV DNA). In kind it is cell-based, HBV (genotype D, serotype ayw). To be noted: Hepatitis B virus, 168 h, 7 days incubation, extracellular HBV DNA by QPCR, read-out: Anti-HBV EC50. A digest of the protocol: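 Tet-off HepAD38, 7-day compound exposure ([…], 1 log10 steps, DMSO vehicle), 37 °C. Extracellular HBV DNA by QPCR, copies/mL via standard curve, % inhibition vs vehicle, EC50 by 4-parameter regression. Entecavir as positive control.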

A short description of series [2]: In vitro cytotoxicity assay (MTT cell viability) in HepG2 cells. In kind it is cell-based, human. To be noted: human. In short, it runs like this:
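Viability measured by MTT conversion, absorbance at 492 nm, as percent of vehicle-treated wells. Compounds spanned 30 μM to 1.0 nM in half-log steps over a 7-day exposure of parental HepG2 cells; CC50 derived by 4-parameter curve fit.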

For `Cc1cc(NC(=O)c2c(C)c(C(=O)C(=O)NC(C)(C)CO)n(C)c2C)cnc1F` [Example 161, N-(6-fluoro-5-methylpyridin-3-yl)-5-(2-((1-hydroxy-2-methylpropan-2-yl)amino)-2-oxoacetyl)-1,2,4-trimethyl-1H-pyrrole-3-carboxamide], the 50% effective concentration (EC50) in series [1] was below 50 nM. The compound further showed a CC50 at 7 days in series [2] above 30 µM.

For the compound `COc1cc(NC(=O)C(=O)c2c(C)c(C(=O)Nc3ccc(F)c(C)c3)c(C)n2C)ccc1B(O)O` [Example 248, (4-(2-(4-((4-fluoro-3-methylphenyl)carbamoyl)-1,3,5-trimethyl-1H-pyrrol-2-yl)-2-oxoacetamido)-2-methoxyphenyl)boronic acid], in series [1], the EC50 is 50 to 499 nM. The same compound showed a half-maximal cytotoxic concentration (CC50) at 7 days in series [2] of 5 to 30 µM.

With `Cc1cc(NC(=O)c2c(C)c(C(=O)C(=O)NC(C)(C)CN3CCOCC3)n(C)c2C)ccc1F` [Example 291, N-(4-fluoro-3-methylphenyl)-1,2,4-trimethyl-5-(2-((2-methyl-1-morpholinopropan-2-yl)amino)-2-oxoacetyl)-1H-pyrrole-3-carboxamide], the 50% effective concentration (EC50) in series [1] was below 50 nM. Further, the CC50 at 7 days in series [2] is above 30 µM.

For `Cc1c(C(=O)Nc2ccc(F)c(F)c2)c2n(c1C(=O)C(=O)N[C@H]1COC[C@@H]1O)CCCC2` [Example 457, N-(3,4-difluorophenyl)-3-(2-(((3S,4R)-4-hydroxytetrahydrofuran-3-yl)amino)-2-oxoacetyl)-2-methyl-5,6,7,8-tettrahydroindolizine-1-carboxamide], the half-maximal effective concentration (EC50) in series [1] fell in the range of 50 to 499 nM. Further, in series [2], the CC50 at 7 days is above 30 µM.

With `Cc1cc(NC(=O)c2c(Cl)c(C(=O)C(=O)NC(C)(C)C(F)(F)F)n3c2CCC3)cnc1F` [Example 573, 6-chloro-N-(6-fluoro-5-methylpyridin-3-yl)-5-(2-oxo-2-((1,1,1-trifluoro-2-methylpropan-2-yl)amino)acetyl)-2,3-dihydro-1H-pyrrolizine-7-carboxamide], the EC50 in series [1] lay within 50 to 499 nM. Further, the CC50 at 7 days in series [2] is above 30 µM.

Regarding `Cc1c(C(=O)Nc2ncc(C(F)(F)F)s2)c2n(c1C(=O)C(=O)NC(C)(C)CO)CCCC2` [Example 757, 3-(2-((1-hydroxy-2-methylpropan-2-yl)amino)-2-oxoacetyl)-2-methyl-N-(5-(trifluoromethyl)thiazol-2-yl)-5,6,7,8-tetrahydroindolizine-1-carboxamide], the EC50 in series [1] was in the range of 50 to 499 nM. The compound also gave a cytotoxic concentration (CC50) at 7 days in series [2] above 30 µM.

Consider `Cc1c(C(=O)Nc2ccc(F)c(F)c2)c(C)n(C)c1C(=O)C(=O)NC(C)(C)C` [Example 4, 5-(2-(tert-butylamino)-2-oxoacetyl)-N-(3,4-difluorophenyl)-1,2,4-trimethyl-1H-pyrrole-3-carboxamide], for which the half-maximal effective concentration (EC50) in series [1] was below 50 nM. Besides, the cytotoxic concentration (CC50) at 7 days in series [2] was above 30 µM.

For `Cc1cc(NC(=O)c2c(C)c(C(=O)C(=O)NC[C@H](C)O)n(C)c2C)ccc1F` [Example 218, (S)-N-(4-fluoro-3-methylphenyl)-5-(2-((2-hydroxypropyl)amino)-2-oxoacetyl)-1,2,4-trimethyl-1H-pyrrole-3-carboxamide], the concentration giving a half-maximal response (EC50) in series [1] is below 50 nM. In series [2], this compound returned a cytotoxic concentration (CC50) at 7 days of 5 to 30 µM.

On to `Cc1noc([C@@H](C)NC(=O)C(=O)c2c(Cl)c(C(=O)Nc3ccc(F)c(C)c3)c3n2CCCC3)n1` [Example 495, (R)-2-chloro-N-(4-fluoro-3-methylphenyl)-3-(2-((1-(3-methyl-1,2,4-oxadiazol-5-yl)ethyl)amino)-2-oxoacetyl)-5,6,7,8-tetrahydroindoliizine-1-carboxamide], for which the EC50 in series [1] was below 50 nM. Also, the CC50 at 7 days in series [2] was in the range of 5 to 30 µM.

On to `CNC(=O)[C@@H](NC(=O)C(=O)c1c(C)c(C(=O)Nc2ccc(F)c(C)c2)c(C)n1C)C(C)C` [Example 108, (S)-N-(4-fluoro-3-methylphenyl)-1,2,4-trimethyl-5-(2-((3-methyl-1-(methylamino)-1-oxobutan-2-yl)amino)-2-oxoacetyl)-1H-pyrrole-3-carboxamide], for which, in series [1], the EC50 was below 50 nM. Moreover, in series [2], the 50% cytotoxic concentration (CC50) at 7 days lay within 0.5 to 4.99 µM.

As for `COC(=O)[C@@H](NC(=O)C(=O)c1c(C)c(C(=O)Nc2ccc(F)c(C)c2)c(C)n1C)C1CCCCC1` [Example 55, methyl (S)-2-cyclohexyl-2-(2-(4-((4-fluoro-3-methylphenyl)carbamoyl)-1,3,5-trimethyl-1H-pyrrol-2-yl)-2-oxoacetamido)acetate], the EC50 in series [1] is 500 to 1000 nM. The compound further returned a CC50 at 7 days in series [2] of 0.5 to 4.99 µM.

On to `Cc1csc(NC(=O)C(=O)c2c(C)c(C(=O)Nc3ccc(F)c(Cl)c3)c(C)n2C)n1` [Example 316, N-(3-chloro-4-fluorophenyl)-1,2,4-trimethyl-5-(2-((4-methylthiazol-2-yl)amino)-2-oxoacetyl)-1H-pyrrole-3-carboxamide], for which the 50% effective concentration (EC50) in series [1] is below 50 nM. In series [2], the 50% cytotoxic concentration (CC50) at 7 days was above 30 µM.

For `Cc1cc(NC(=O)c2c(C)c(C(=O)C(=O)NC3CCC(F)(F)CC3)n(C)c2C)cnc1F` [Example 343, 5-(2-((4,4-difluorocyclohexyl)amino)-2-oxoacetyl)-N-(6-fluoro-5-methylpyridin-3-yl)-1,2,4-trimethyl-1H-pyrrole-3-carboxamide], in series [1], the EC50 was in the range of 50 to 499 nM. For the same compound, the CC50 at 7 days in series [2] is above 30 µM.

Take `Cc1cc(NC(=O)c2c(C)c(C(=O)C(=O)N[C@H](C(=O)O)C3CCCCC3)n(C)c2C)ccc1F` [Example 68, (S)-2-cyclohexyl-2-(2-(4-((4-fluoro-3-methylphenyl)carbamoyl)-1,3,5-trimethyl-1H-pyrrol-2-yl)-2-oxoacetamido)acetic acid]: the EC50 in series [1] is above 1000 nM. The compound further showed a 50% cytotoxic concentration (CC50) at 7 days in series [2] above 30 µM.

On to `Cc1noc(C2(NC(=O)C(=O)c3c(C)c(C(=O)Nc4ccc(F)c(C)c4)c(C)n3C)CC2)n1` [Example 155, N-(4-fluoro-3-methylphenyl)-1,2,4-trimethyl-5-(2-((1-(3-methyl-1,2,4-oxxadiazol-5-yl)cyclopropyl)amino)-2-oxoacetyl)-1H-pyrrole-3-carboxamide], for which, in series [1], the EC50 was below 50 nM. Also, the half-maximal cytotoxic concentration (CC50) at 7 days in series [2] is above 30 µM.

On to `Cc1cc(NC(=O)c2c(C)c(C(=O)C(=O)NCC(C)(C)C)n(C)c2C)ccc1F` [Example 64, N-(4-fluoro-3-methylphenyl)-1,2,4-trimethyl-5-(2-(neopentylamino)-2-oxoacetyl)-1H-pyrrole-3-carboxamide], for which, in series [1], the EC50 was below 50 nM. The CC50 at 7 days in series [2] was 5 to 30 µM.

For the compound `Cc1c(C(=O)NC2(C)CCCC2)c2n(c1C(=O)C(=O)NC1(CO)CCC1)CCCC2` [Example 745, 3-(2-((1-(hydroxymethyl)cyclobutyl)amino)-2-oxoacetyl)-2-methyl-N-(1-methylcyclopentyl)-5,6,7,8-tetrahdyroindolizine-1-carboxamide], in series [1], the EC50 lay within 50 to 499 nM. In series [2], this compound yielded a CC50 at 7 days above 30 µM.

For the compound `Cc1cc(NC(=O)c2c(C)c(C(=O)C(=O)N[C@H]3CC[C@@](C)(O)CC3)n(C)c2C)ccc1F` [Example 214, N-(4-fluoro-3-methylphenyl)-5-(2-(((1s,4s)-4-hydroxy-4-methylcyclohexyl)amino)-2-oxoacetyl)-1,2,4-trimethyl-1H-pyrrole-3-carboxamide], in series [1], the EC50 is below 50 nM. This compound also returned a CC50 at 7 days in series [2] above 30 µM.

Turning to `Cc1noc([C@H](C)NC(=O)C(=O)c2cc(C(=O)Nc3ccc(F)c(C)c3)c3n2CCCC3)n1` [Example 430, (S)-N-(4-fluoro-3-methylphenyl)-3-(2-((1-(3-methyl-1,2,4-oxadiazol-5-yl)ethyl)amino)-2-oxoacetyl)-5,6,7,8-tetrahydroindolizine-1-carboxamide], the EC50 in series [1] lay in the range of 50 to 499 nM. Further, the CC50 at 7 days in series [2] is above 30 µM.

Consider `Cc1cc(NC(=O)c2cc(C(=O)C(=O)NC(C)(C)C)n3c2CNCC3)ccc1F` [Example 588, 6-(2-(tert-butylamino)-2-oxoacetyl)-N-(4-fluoro-3-methylphenyl)-1,2,3,4-tetrahydropyrrolo[1,2-a]pyrazine-8-carboxamide], for which the half-maximal effective concentration (EC50) in series [1] is 50 to 499 nM. The CC50 at 7 days in series [2] lay within 5 to 30 µM.

On to `Cc1cc(NC(=O)c2c(C)c(C(=O)C(=O)NC(C)CN3CCOCC3)n(C)c2C)ccc1F` (centres unmarked) [Example 290, N-(4-fluoro-3-methylphenyl)-1,2,4-trimethyl-5-(2-((1-morpholinopropan-2-yl)amino)-2-oxoacetyl)-1H-pyrrole-3-carboxamide], for which the 50% effective concentration (EC50) in series [1] was below 50 nM. The same compound displayed a cytotoxic concentration (CC50) at 7 days in series [2] above 30 µM.

`Cc1cc(NC(=O)c2c(C)c(C(=O)C(=O)N[C@@H]3CCC[C@H]3O)n(C)c2C)cnc1F` [Example 132, N-(6-fluoro-5-methylpyridin-3-yl)-5-(2-(((1R,2R)-2-hydroxycyclopentyl)amino)-2-oxoacetyl)-1,2,4-trimethyl-1H-pyrrole-3-carboxamide]: the EC50 in series [1] was in the range of 50 to 499 nM. The same compound yielded a CC50 at 7 days in series [2] above 30 µM.

With `Cc1cc(NC(=O)c2c(C)c(C(=O)C(=O)N[C@H](C(=O)OC(C)(C)C)C(C)(C)C)n(C)c2C)ccc1F` [Example 23, tert-butyl (S)-2-(2-(4-((4-fluoro-3-methylphenyl)carbamoyl)-1,3,5-trimethyl-1H-pyrrol-2-yl)-2-oxoacetamido)-3,3-dimethylbutanoate], the EC50 in series [1] was 50 to 499 nM. Also, in series [2], the CC50 at 7 days was above 30 µM.

For `Cc1cc(NC(=O)c2cc(C(=O)C(=O)NC3(C(F)(F)F)CC3)n3c2CCCC3)ccc1F` [Example 402, N-(4-fluoro-3-methylphenyl)-3-(2-oxo-2-((1-(trifluoromethyl)cyclopropyl)amino)acetyl)-5,6,7,8-tetrahydroindolizine-1-carboxamide], in series [1], the EC50 was in the range of 50 to 499 nM. In series [2], the CC50 at 7 days is above 30 µM.

Take `O=C(NC1(CO)CCC1)C(=O)c1c(Cl)c(C(=O)Nc2ccc(F)c(Cl)c2)c2n1CCC2` [Example 565, 6-chloro-N-(3-chloro-4-fluorophenyl)-5-(2-((1-(hydroxymethyl)cyclobutyl)amino)-2-oxoacetyl)-2,3-dihydro-1H-pyrrolizine-7-carboxamide]: in series [1], the concentration for a half-maximal effect (EC50) was below 50 nM. In addition, the CC50 at 7 days in series [2] was in the range of 5 to 30 µM.
